Laboratory results reported in US8192962B2, “Processes for detecting toxic substances” (Daikin Industries, Ltd., priority 2001, dated 2012).

System: Mitochondria-located protein genes
Assay: DNA chip mRNA expression in yeast, mitochondria-located protein genes (Table 2)
Format: cell-based, Saccharomyces cerevisiae S288C
Conditions: cells incubated two hours with the chemical substance
How it was run: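 S. cerevisiae S288C grown at 25° C in YPD were exposed in log phase for two hours to one toxic chemical at a growth-inhibiting, non-lethal concentration; untreated cells served as control. Poly(A) mRNA was reverse-transcribed with Cy3/Cy5-dUTP and hybridized to a whole-genome yeast DNA chip at 65° C for over 12 hours; values are fluorescence ratios versus untreated.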

Measured: The level of expressed mRNA in the presence of chemical substance/The level of expressed mRNA in the absence of chemical substance

manganese ethylenebis(dithiocarbamate) [(8)]
1.5: yeast gene YBR091C | yeast gene YCR083W | yeast gene YML054C | yeast gene YMR267W | yeast gene YOR037W
1.3: yeast gene YBR122C | yeast gene YBR251W | yeast gene YDR231C | yeast gene YDR377W | yeast gene YDR529C | yeast gene YJL096W | yeast gene YMR089C | yeast gene YPL134C
1.8: yeast gene YCL057W | yeast gene YGR244C
0.6: yeast gene YDL181W | yeast gene YLR304C
1.1: yeast gene YBR044C | yeast gene YBR185C | yeast gene YDL067C | yeast gene YDL198C | yeast gene YEL039C | yeast gene YKL194C | yeast gene YMR083W | yeast gene YOR150W | yeast gene YPL040C | yeast gene YPL215W | yeast gene YPR037C
1.0: yeast gene YEL024W | yeast gene YIL155C | yeast gene YJL180C | yeast gene YLR395C | yeast gene YNL073W | yeast gene YOL096C | yeast gene YOR100C | yeast gene YOR176W | yeast gene YPL135W | yeast gene YPL262W
1.6: yeast gene YBL038W | yeast gene YGL191W | yeast gene YGR174C | yeast gene YKL016C
2.3: yeast gene YKL142W
1.9: yeast gene YDR258C | yeast gene YGR008C | yeast gene YGR076C
1.7: yeast gene YOR020C
2.6: yeast gene YDR079W
0.7: yeast gene YFL016C | yeast gene YGL187C | yeast gene YJR121W | yeast gene YKR066C | yeast gene YMR203W | yeast gene YNL055C | yeast gene YOR187W | yeast gene YPR024W
0.8: yeast gene YBL030C | yeast gene YBL099W | yeast gene YBR221C | yeast gene YER178W | yeast gene YGL018C | yeast gene YGR062C | yeast gene YGR082W | yeast gene YJR045C | yeast gene YJR077C | yeast gene YKL141W | yeast gene YKL148C | yeast gene YLL041C | yeast gene YLR259C | yeast gene YMR152W | yeast gene YOR130C | yeast gene YOR142W | yeast gene YOR316C
1.2: yeast gene YAL039C | yeast gene YDR298C | yeast gene YDR347W | yeast gene YKL003C | yeast gene YKL170W | yeast gene YLR295C | yeast gene YML129C | yeast gene YPR047W
1.4: yeast gene YBR282W | yeast gene YGR028W | yeast gene YJL166W | yeast gene YLR038C | yeast gene YMR023C | yeast gene YMR035W | yeast gene YPR134W
0.4: yeast gene YBL022C
0.9: yeast gene YBR003W | yeast gene YCR046C | yeast gene YDR178W | yeast gene YHR008C | yeast gene YJL102W | yeast gene YJL133W | yeast gene YLR348C | yeast gene YML120C | yeast gene YNL071W | yeast gene YNL104C | yeast gene YNL256W
